The supplement of paper PMC12463676, “Small-molecule dissolution of stress granules by redox modulation benefits ALS models” (Nature Chemical Biology, 2025)

Tests used:
[1] = compound: NC(=O)CCCCC1CCSS1 [lipoamide]; assay: thermal stability z-score vs DMSO; higher = more thermally stabilized by treatment; details: HeLa, lipoamide concentration 100 µM
Procedure: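 Cellular thermal proteome profiling in HeLa cells. Cells were treated with 100 µM lipoamide for 1 h, with or without 1 mM arsenate for a further 1 h, then heated to ten temperatures (37-66.3 °C), and soluble protein was quantified by TMT mass spectrometry relative to 0.1% DMSO controls. The thermal stability score (sum of log2 fold changes minus the abundance score) was transformed to a z-score; mean of n = 3 experiments.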

[2] = compound: O=[As]([O-])(O)O.[K+] [potassium arsenate]; assay: as above; details: HeLa; arsenate concentration 1 mM
Procedure: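 Cellular thermal proteome profiling in HeLa cells treated with 1 mM arsenate for 1 h (DMSO pretreatment), heated to ten temperatures (37-66.3 °C). Soluble protein was quantified by TMT mass spectrometry relative to DMSO controls; the thermal stability score was transformed to a z-score; mean of n = 3 experiments.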

[3] = arsenate co-treatment: 1 mM arsenate 1 h
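Further: each temperature applied for 3 min, abundance score taken as mean log2 fold change at the two lowest temperatures, z-score obtained by mean subtraction and division by SD.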

Chain of UniProt Q7L1Q6 (Q7L1Q6 whole entry): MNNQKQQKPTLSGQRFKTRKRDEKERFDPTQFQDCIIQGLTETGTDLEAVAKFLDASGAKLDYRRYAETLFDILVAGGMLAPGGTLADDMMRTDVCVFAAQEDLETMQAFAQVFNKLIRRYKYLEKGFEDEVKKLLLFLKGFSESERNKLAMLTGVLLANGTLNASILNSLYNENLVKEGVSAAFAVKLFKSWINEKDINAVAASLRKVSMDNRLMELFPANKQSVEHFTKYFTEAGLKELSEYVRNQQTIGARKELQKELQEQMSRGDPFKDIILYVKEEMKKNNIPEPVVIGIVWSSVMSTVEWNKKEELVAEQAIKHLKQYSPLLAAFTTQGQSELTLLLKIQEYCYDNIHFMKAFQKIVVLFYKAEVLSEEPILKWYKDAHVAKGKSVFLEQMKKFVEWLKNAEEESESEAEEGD
Chain of UniProt P11926 (P11926 whole entry): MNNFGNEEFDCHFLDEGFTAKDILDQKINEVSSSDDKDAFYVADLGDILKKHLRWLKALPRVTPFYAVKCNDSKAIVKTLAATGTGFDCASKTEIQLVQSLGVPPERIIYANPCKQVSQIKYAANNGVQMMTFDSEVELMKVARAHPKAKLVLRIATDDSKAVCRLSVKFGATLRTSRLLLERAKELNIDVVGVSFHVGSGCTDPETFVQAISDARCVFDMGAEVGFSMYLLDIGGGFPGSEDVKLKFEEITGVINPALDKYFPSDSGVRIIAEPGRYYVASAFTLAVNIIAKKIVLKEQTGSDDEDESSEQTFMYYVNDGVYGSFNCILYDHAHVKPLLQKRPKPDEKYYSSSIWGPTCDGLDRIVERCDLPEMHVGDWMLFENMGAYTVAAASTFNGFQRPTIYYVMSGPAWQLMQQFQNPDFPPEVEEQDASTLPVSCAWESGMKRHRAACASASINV
Chain of UniProt P43686 (P43686 whole entry): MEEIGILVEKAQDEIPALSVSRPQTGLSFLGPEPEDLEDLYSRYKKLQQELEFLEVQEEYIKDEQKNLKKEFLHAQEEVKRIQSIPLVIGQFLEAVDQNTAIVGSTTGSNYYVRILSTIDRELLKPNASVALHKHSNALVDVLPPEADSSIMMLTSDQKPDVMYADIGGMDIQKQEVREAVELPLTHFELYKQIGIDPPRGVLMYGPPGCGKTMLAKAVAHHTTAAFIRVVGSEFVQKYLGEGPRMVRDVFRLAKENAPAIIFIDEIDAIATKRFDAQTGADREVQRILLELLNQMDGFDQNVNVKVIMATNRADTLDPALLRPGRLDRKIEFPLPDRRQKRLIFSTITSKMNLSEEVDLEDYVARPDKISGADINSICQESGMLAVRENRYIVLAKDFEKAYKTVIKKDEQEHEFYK
Chain of UniProt P32121 (P32121 whole entry): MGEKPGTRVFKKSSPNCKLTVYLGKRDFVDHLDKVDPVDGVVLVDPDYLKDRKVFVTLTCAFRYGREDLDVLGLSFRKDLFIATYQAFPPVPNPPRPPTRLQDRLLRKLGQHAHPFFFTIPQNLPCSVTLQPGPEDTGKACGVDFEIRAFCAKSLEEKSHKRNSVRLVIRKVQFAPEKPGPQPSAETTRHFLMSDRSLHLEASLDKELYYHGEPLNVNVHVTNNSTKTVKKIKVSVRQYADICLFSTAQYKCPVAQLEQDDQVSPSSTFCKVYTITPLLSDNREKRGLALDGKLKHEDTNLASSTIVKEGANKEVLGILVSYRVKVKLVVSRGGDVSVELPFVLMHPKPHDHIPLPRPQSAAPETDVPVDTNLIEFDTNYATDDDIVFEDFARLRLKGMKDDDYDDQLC
Chain of UniProt Q9NPI1 (Q9NPI1 whole entry): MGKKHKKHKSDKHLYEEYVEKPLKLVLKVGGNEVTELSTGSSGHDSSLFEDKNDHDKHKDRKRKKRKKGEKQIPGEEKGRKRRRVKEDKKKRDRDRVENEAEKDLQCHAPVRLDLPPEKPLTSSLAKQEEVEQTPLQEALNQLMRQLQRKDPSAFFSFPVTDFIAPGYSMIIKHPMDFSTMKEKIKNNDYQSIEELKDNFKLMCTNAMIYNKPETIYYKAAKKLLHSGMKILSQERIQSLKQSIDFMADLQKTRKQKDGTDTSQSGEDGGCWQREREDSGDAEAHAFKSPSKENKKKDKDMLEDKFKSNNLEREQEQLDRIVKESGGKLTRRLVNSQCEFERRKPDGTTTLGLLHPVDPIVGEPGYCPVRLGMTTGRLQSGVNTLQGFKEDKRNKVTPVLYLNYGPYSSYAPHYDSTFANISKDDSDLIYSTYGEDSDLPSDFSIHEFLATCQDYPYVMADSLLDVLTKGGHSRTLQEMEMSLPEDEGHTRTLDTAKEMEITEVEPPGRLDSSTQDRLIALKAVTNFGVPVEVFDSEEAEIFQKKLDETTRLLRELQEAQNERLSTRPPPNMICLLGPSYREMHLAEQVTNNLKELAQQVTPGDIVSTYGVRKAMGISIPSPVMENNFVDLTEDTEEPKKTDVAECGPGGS
Chain of UniProt Q92613 (Q92613 whole entry): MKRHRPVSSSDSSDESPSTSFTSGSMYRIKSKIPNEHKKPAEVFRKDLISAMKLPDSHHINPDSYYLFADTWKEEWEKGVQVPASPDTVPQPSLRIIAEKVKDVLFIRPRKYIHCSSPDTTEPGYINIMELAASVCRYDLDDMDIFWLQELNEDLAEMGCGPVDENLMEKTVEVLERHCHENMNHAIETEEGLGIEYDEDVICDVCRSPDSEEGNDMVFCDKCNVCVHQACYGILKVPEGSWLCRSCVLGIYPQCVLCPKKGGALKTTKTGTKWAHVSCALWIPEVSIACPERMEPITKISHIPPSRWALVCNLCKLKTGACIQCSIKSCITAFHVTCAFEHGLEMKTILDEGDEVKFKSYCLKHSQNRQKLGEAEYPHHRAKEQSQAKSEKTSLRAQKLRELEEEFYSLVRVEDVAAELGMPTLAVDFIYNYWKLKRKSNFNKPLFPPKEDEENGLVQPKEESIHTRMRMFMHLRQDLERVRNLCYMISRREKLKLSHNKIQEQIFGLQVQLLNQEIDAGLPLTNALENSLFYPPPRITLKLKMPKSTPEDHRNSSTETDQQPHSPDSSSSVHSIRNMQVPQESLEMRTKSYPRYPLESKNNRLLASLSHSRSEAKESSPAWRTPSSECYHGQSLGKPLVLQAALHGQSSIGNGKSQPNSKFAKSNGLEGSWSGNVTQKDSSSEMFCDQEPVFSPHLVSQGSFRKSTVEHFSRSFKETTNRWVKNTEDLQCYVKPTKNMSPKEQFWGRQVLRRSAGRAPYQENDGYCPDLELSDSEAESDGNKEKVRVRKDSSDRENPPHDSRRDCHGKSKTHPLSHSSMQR
Chain of UniProt Q9UNI6 (Q9UNI6 whole entry): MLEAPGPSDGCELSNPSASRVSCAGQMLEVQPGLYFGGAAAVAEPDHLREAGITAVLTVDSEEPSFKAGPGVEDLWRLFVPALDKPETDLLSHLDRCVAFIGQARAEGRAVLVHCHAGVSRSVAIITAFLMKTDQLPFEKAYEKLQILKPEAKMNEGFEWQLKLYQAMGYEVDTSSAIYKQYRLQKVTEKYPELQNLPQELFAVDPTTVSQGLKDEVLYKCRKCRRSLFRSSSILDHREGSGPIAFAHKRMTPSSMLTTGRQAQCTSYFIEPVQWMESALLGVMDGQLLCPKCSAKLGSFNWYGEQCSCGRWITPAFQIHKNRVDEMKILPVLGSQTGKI
Chain of UniProt O00505 (O00505 whole entry): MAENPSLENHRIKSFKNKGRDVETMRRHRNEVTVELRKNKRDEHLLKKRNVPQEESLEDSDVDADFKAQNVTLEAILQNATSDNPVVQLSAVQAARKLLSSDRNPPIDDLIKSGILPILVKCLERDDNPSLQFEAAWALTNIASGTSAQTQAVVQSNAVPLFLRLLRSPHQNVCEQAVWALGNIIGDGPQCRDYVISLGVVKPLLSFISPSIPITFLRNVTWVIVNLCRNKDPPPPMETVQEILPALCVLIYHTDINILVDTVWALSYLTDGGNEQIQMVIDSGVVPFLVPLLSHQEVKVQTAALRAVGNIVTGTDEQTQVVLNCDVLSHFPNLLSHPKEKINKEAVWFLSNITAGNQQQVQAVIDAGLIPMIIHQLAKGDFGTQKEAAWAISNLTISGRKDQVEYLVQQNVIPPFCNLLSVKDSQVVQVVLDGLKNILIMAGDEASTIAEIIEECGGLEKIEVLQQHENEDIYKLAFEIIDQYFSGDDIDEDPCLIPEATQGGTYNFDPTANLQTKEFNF
Chain of UniProt P33908 (P33908 whole entry): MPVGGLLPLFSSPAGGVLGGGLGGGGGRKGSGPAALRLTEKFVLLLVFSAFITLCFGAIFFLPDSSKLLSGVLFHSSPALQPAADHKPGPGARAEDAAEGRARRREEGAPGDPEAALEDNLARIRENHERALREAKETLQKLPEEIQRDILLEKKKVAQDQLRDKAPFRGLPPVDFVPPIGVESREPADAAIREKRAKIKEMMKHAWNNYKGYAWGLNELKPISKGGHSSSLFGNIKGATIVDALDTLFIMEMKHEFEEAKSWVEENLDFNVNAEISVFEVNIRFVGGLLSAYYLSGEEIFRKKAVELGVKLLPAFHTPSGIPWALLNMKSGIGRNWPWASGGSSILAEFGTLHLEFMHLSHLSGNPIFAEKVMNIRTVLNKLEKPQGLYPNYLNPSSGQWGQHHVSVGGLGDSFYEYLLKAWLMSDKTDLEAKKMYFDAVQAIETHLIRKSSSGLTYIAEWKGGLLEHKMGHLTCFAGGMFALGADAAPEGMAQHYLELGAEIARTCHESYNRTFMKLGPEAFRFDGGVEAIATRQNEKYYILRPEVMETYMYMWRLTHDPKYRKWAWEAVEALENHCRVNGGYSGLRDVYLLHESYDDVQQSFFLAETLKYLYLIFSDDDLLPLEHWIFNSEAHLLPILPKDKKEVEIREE
Chain of UniProt P41567 (P41567 whole entry): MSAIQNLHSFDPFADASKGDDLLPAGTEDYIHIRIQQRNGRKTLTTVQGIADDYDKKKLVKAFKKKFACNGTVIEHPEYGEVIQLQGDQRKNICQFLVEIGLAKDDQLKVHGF
Chain of UniProt Q9BZL1 (Q9BZL1 whole entry): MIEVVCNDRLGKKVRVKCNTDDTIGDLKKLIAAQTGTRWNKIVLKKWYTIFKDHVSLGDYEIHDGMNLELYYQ

Target	thermal stability z-score [1, 3]	thermal stability z-score ([1]; arsenate co-treatment: none)	thermal stability z-score [2]
ARL2BP (UniProt Q9Y2Y0)	-0.0213	0.0527	-0.326
DNAJC30 (UniProt Q96LL9)	-0.154	-0.0708	0.0918
TMEM189 (UniProt A5PLL7)	-0.772	-0.595	-0.167
USP32 (UniProt Q8NFA0)	-0.102	-0.19	-0.0527
TIMM21 (UniProt Q9BVV7)	0.0115	0.000788	0.255
RAB14 (UniProt P61106)	0.738	0.522	0.48
CDR2L (UniProt Q86X02)	0.891	0.86	-0.419
ARRB2 (UniProt P32121)	-0.153	-1.1	0.28
AP5Z1 (UniProt O43299)	0.0372	0.822	0.502
UBL5 (UniProt Q9BZL1)	-0.115	-0.0438	-0.107
EXOC7 (UniProt Q9UPT5)	-0.927	-0.435	-0.227
ATPAF2 (UniProt Q8N5M1)	-0.263	-0.0435	-0.318
DENR (UniProt O43583)	0.109	-0.188	-0.702
SAMM50 (UniProt Q9Y512)	0.182	0.601	1.08
APOB (UniProt P04114)	-0.228	0.0547	-0.328
SLAIN2 (UniProt Q9P270)	0.251	0.508	-0.0239
CENPE (UniProt Q02224)	0.141	0.088	0.013
DST (UniProt Q03001)	0.0624	-0.113	-0.103
PHF3 (UniProt Q92576)	1.05	0.76	-0.848
HNRNPDL (UniProt O14979)	0.895	0.34	-1.85
GALNT2 (UniProt Q10471)	-1.83	-1.16	0.25
GLRX2 (UniProt Q9NS18)	1.4	1.7	3.8
GLT8D2 (UniProt Q9H1C3)	-1.22	-0.83	-0.0179
TMEM106B (UniProt Q9NUM4)	-0.167	0.154	0.192
PSMC4 (UniProt P43686)	-0.725	-0.18	-0.369
MAN1A1 (UniProt P33908)	0.547	0.362	0.104
NT5DC1 (UniProt Q5TFE4)	0.0662	-0.687	-0.749
ODC1 (UniProt P11926)	0.0303	0.354	0.106

Target	thermal stability z-score [1, 3]	thermal stability z-score ([1]; arsenate co-treatment: none)	thermal stability z-score [2]
CBR4 (UniProt Q8N4T8)	-0.276	0.0911	0.168
FAM206A (UniProt Q9NX38)	-0.0394	-0.233	0.249
RBM26 (UniProt Q5T8P6)	-0.0221	0.172	-0.536
PREB (UniProt Q9HCU5)	-0.337	-0.353	-0.0461
NADK2 (UniProt Q4G0N4)	0.539	0.491	-0.584
PUS7L (UniProt Q9H0K6)	0.3	0.174	-0.0157
EIF1 (UniProt P41567)	-0.179	-0.0958	-0.193
RAB12 (UniProt Q6IQ22)	1.06	1.06	0.678
JADE3 (UniProt Q92613)	-0.12	0.143	-0.474
MPP5 (UniProt Q8N3R9)	-0.0805	-0.0555	-0.004
PUM3 (UniProt Q15397)	0.119	-0.0918	0.369
KPNA3 (UniProt O00505)	-1.01	-0.146	-0.288
TRMT2A (UniProt Q8IZ69)	-0.235	-0.172	-0.216
ARAP1 (UniProt Q96P48)	-0.133	-0.0899	-0.345
BZW1 (UniProt Q7L1Q6)	0.452	0.578	0.483
GUSB (UniProt P08236)	-0.178	-0.261	0.885
SLC5A6 (UniProt Q9Y289)	-0.586	-0.512	0.342
OSBPL8 (UniProt Q9BZF1)	-1.47	-1.21	-0.00618
BRD7 (UniProt Q9NPI1)	-0.355	-0.169	-0.517
PYCRL (UniProt Q53H96)	0.827	0.862	0.43
RPS15A (UniProt P62244)	0.437	0.494	-0.776
CCDC174 (UniProt Q6PII3)	-0.407	-0.734	-0.984
NUP50 (UniProt Q9UKX7)	1.4	1.06	0.502
DDR2 (UniProt Q16832)	-0.251	-0.189	-0.163
GEMIN5 (UniProt Q8TEQ6)	-0.411	-0.402	-0.93
DUSP12 (UniProt Q9UNI6)	-0.0977	0.123	1.05
WDR26 (UniProt Q9H7D7)	-0.326	-0.319	-0.602
